Entries after “also recorded” stand apart in the source; their conditions may differ. Where a name gives a salt, the structure may show the parent alone.
What was measured:
[1] = test system: rat OPCs; experiment: 3-nitrotyrosine (3-NT) positive rat OPCs after Env stimulation (immunostaining); assay type: cell-based; details: for Env dependent formation of 3-NT positive OPCs after pre-incubation: 100 μM for 30 min at 37° C. prior to Env stimulation
Description: Rat oligodendrocyte Precursor Cells (OPCs) were purified as previously described^22. OPCs were either kept in proliferation medium (Sato medium supplemented with 10 ng/ml recombinant human basic fibroblast growth factor and 10 ng/ml recombinant human platelet-derived growth factor-AA; R&D Systems, Wiesbaden-Nordenstadt, Germany), whereas differentiation was initiated by Sato medium supplemented with 0.5% fetal calf serum. Human fetal oligodendrocyte precursor cells (hOPC) and respective media were purchased from 3H Biomedical, Uppsala, Sweden. Recombinant Env was produced and purified by PX-Therapeutics (Grenoble, France) according to QC specifications of GeNeuro (Geneva, Switzerland) that supplied the protein batches. Endotoxin levels were <5 EU/mL as measured by the limulus amebocyte lysate (LAL) test. Env stimulation was carried out using three different approaches using i) recombinant full length Env protein diluted in differentiation medium at 10 ng/ml, 100 ng/ml and 1000 ng/ml, ii) recombinant Env protein coated on cell culture dishes at a surface concentration of 17.53 ng/cm^2 and iii) by seeding OPCs on transfected U343 glioblastoma cells overexpressing Env, respectively. Control stimulation experiments were conducted using the recombinant Env buffer preparation (20 mM histidine, 5% (w/v) sucrose, 0.01% (w/v) polysorbate 20, pH 6.0) at equal dilutions. NO concentration measurements in OPC supernatants were performed using a colorimetric nitric oxide assay kit (Merck-Millipore/Calbiochem, Darmstadt, Germany) and the absorbance was determined at 540 nm using an Anthos plate reader 2001 (Anthos labtec instruments, Salzburg, Austria). OPC morphology assessment was carried out using an anti-04 antibody Merck-Millipore/Chemicon, Darmstadt, Germany) taking into account cell diameter and the degree of process branching. […]

[2] = test system: rat OPCs; experiment: Myelin protein (CNPase, MBP) expression of Env stimulated rat OPCs (immunostaining); assay type: cell-based; details: 100 μM in combination with surface bound recombinant Env for three days
Description: (§1) Rat oligodendrocyte Precursor Cells (OPCs) were purified as previously described^22. OPCs were either kept in proliferation medium (Sato medium supplemented with 10 ng/ml recombinant human basic fibroblast growth factor and 10 ng/ml recombinant human platelet-derived growth factor-AA; R&D Systems, Wiesbaden-Nordenstadt, Germany), whereas differentiation was initiated by Sato medium supplemented with 0.5% fetal calf serum. Human fetal oligodendrocyte precursor cells (hOPC) and respective media were purchased from 3H Biomedical, Uppsala, Sweden. Recombinant Env was produced and purified by PX-Therapeutics (Grenoble, France) according to QC specifications of GeNeuro (Geneva, Switzerland) that supplied the protein batches. Endotoxin levels were <5 EU/mL as measured by the limulus amebocyte lysate (LAL) test. […] NO concentration measurements in OPC supernatants were performed using a colorimetric nitric oxide assay kit (Merck-Millipore/Calbiochem, Darmstadt, Germany) and the absorbance was determined at 540 nm using an Anthos plate reader 2001 (Anthos labtec instruments, Salzburg, Austria). […]

[3] = test system: MSRV-Env induced EAE in C57BL/6 mice; experiment: EAE clinical score, Example 3.A (EAE induced with MOG and MSRV-Env); assay type: in vivo; details: treatment from day 12 to day 29: GNbAc1 200 μg once, L-NAME 600 μg IP and SMT 1 mg IP every 4 days, DMF 1 mg daily in drinking water
Text: Pathogen free female C57BL/6 nice (6-8 weeks old) were purchased from the Charles River laboratories and maintained at the animal facilities for one week before immunization. One day before immunization, all mice have been weighed, and then evaluated on the Rotarod Test. Rotarod:
(§2) Animals were weighed and clinically scored 5 days per week according to the following criteria: 0=no signs; 1=tail paralysis or hyper-reflex of hind limb(s) or unilateral hind limb weakness; 2=bilateral hind limb or forelimb weakness; 3=plus unilateral paralysis or major deficit; 4=complete hind limb or forelimb paralysis; 5=plus partial paralysis or major deficit of opposite limbs; 6=moribund or dead. These were adapted from standard criteria, in order to reflect the more rapid induction of brain and cervical cord lesions with this model.
(§3) All groups of 6 (six) mice have been first injected s.c. in the neck on day 0 then in the dorsal flanks on day 7 and 14; with 200 μg of MOG/mouse+60 μg of MSRV-Env+IFA.
(§4) For Groups G to H, the treatments with GNbAc1, L-NAME, SMT and DMF alone or together with GNbAc1 with the doses indicated below, have been initiated on day 12 post immunization when the progression of EAE clinical symptoms was already observed. GNbAc1 humanized antibody was administered once, but L-Name or SMT was administered every 4 days until termination of the study on day 29. Regarding Groups E and H, attributed for the treatment with DMF, we have previously determined the volume of daily water consumption by each mouse and it has been determined that (in our condition), each mouse consumed around 3.5 ml drinking water per day. Thus, on the basis of this measurement, a dose of 1 mg DMF+0.08% Methocel per mouse were added to 3.5 ml drinking water daily.
350 ng of pertussis toxin (PTX) per animal was injected (i.p.) in all groups on the same day following each immunogen injection, and replicated 2 days later, as usual in EAE protocols in order to facilitate the migration lymphocytes through the blood-brain barrier.

[4] = test system: rat OPCs; experiment: iNOS expression in cultured rat OPCs stimulated with recombinant Env (quantitative RT-PCR); assay type: cell-based; details: 2 h pre-incubation (IRAK1/4 inhibitor I 3200 nM; TRIF inhibitory peptide 50 μM; anti-TLR4 antibody 15 μg/ml), then solid recombinant Env 8 h, GAPDH reference
Description: as §1, with “Recombinant Env was produced and purified by PX-Therapeutics (Grenoble, France) according to QC specifications of GeNeuro (Geneva, Switzerland) that supplied the protein batches.” left out
Transcription Polymerase Chain Reaction RNA purification from cultured cells was performed using the RNeasy procedure (Qiagen, Hilden, Germany). […] Quantitative determination of gene expression levels was performed on a 7900HT sequence detection system (Life Technologies/Applied Biosystems) using Power SybrGreen universal master mix (Life Technologies/Applied Biosystems). […]

[5] = test system: rat OPCs; experiment: NO concentration in OPC supernatants (colorimetric nitric oxide assay); assay type: cell-based; details: Env stimulated OPCs; data not shown
Description: as §1

[6] = test system: MSRV-Env induced EAE in C57BL/6 mice; experiment: Rotarod test, Example 3.A (MSRV-Env induced EAE); assay type: in vivo; details: Example 3.A doses, end of study period
Description: 9 and 8 days before immunization. Transfer of mice, in their home cages, from the holding room to the experimental room. Mice are habituated to the experimental room for 15 min. During the training period, each mouse was placed on the rotarod at a constant speed (4 rpm) if one mouse was falling, she was back on rotarod, when mice were comfortable on the rotarod, mice were running during 120 sec. All mice were returned to their cage, the speed was increased to 13 rpm and mice were again put on the rotarod for 120 sec. All mice were returned to their cage, the speed was increased to 19 rpm and mice were again put on the rotarod for 120 sec. The experimental-room environment were kept constant between test sessions with respect to temperature, and light intensity.
1 day before each immunization, mice were transferred in their home cages, from the holding room to the experimental room. Mice were habituated to the experimental room for 15 min. Mice then received two trials at 10 increasing speed levels, ranging from 7 to 40 rpm. Individual delays before falling off the rotarod (for the two trials at each speed level) was recorded until 60 sec. Thus, training and performance on the Rotarod system were determined for each animal.
The ROTAROD test results are expressed as kinetics of the mean of individual scores for each group with SEM indicated by bars, for each test day and for each test speed within the discriminating range for neuromotor impairment in present conditions (16 to 29 rpm).
They are calculated for each individual mouse, for each test day and for each speed value, as the relative gain or loss of time on Rotarod (before falling), compared to the first test day at the same speed (D-7, before starting the disease induction in relevant groups). The value is calculated as “Time on Rotarod at dayX”−“Time at Day-7 for the same mouse at the same speed”. Figures illustrate the kinetics for the different groups on the whole study period, for representative discriminative speed values when validated to differentiate ill from healthy animals in our conditions (e.g., too high or too low speed values either made healthy ones fall immediately or ill ones capable to sustain a slow movement).
as §3, §4

[7] = test system: MSRV-Env induced EAE in C57BL/6 mice; experiment: EAE clinical score, Example 3.C (GNbAC1 and Sodium Fumarate); assay type: in vivo; details: from day 12: GNbAC1 500 μg IP; Sodium Fumarate 10 mg daily in 3.5 ml drinking water; versus isotype control antibody
Text: as §2

In the case of CC(=O)NC(C(=O)O)C(C)(C)SN=O (racemic) [SNAP, S-Nitroso-N-acetyl-DL-penicillamine], the “3-NT positive OPCs, NO donor positive control” value ([1]; SNAP 100 ng/ml) is reported as “nitrotyrosinylation of almost all OPCs”.
With COC(=O)[C@H](N)CCCNC(=N)N[N+](=O)[O-] [D-NAME, D-N^G-nitroarginine methyl ester] the “Env dependent formation of 3-NT positive OPCs after pre-incubation” value [1] was “not affected; also recorded: could not abolish the Env dependent 3-NT induction” and the “MBP expression in Env stimulated OPCs (rescue of differentiation block)” value [2] was “not and not able to rescue myelin expression”.
For COC(=O)/C=C/C(=O)OC [DMF, dimethyl fumarate], the “EAE clinical score kinetics and recovery” value [3] was “equivalent recovery at the end of the study”.
In the case of O=C(Nc1nc2ccccc2n1CCN1CCOCC1)c1cccc([N+](=O)[O-])c1 [IRAK-1/4 inhibitor I, 1-(2-(4-Morpholinyl)ethyl)-2-(3-nitrobenzoylamino)benzimidazole], the “iNOS expression in presence of Env after pre-incubation with inhibitor” value [4] is reported as “significantly decreased iNOS expression levels” and the “iNOS expression in presence of Env after pre-incubation with inhibitor” value ([4]; listed as IRAK1/4 inhibitor I) is reported as “Reduction of iNOS expression”.
In the case of COC(=O)[C@@H](N)CCCNC(=N)N[N+](=O)[O-] [L-NAME, L-N^G-nitroarginine methyl ester], the “Env dependent formation of 3-NT positive OPCs after pre-incubation” value [1] is reported as “significantly decreased; also recorded: reduced to control levels”, the “MBP expression in Env stimulated OPCs (rescue of differentiation block)” value [2] is reported as “rescue MBP expression; also recorded: abolishment of the Env-mediated OPC differentiation block” and the “NO production after pre-incubation with L-NAME” value [5] is reported as “significantly decreased”. For the same compound, the “EAE clinical score kinetics and recovery” value [3] was “irregular recovery”, the “EAE clinical score kinetics and recovery” value ([3]; listed as L-Name) was “lower recovery scores and kinetics than group B” and the “Time on Rotarod at 26 rpm relative to Day -7” value [6] was “improved kinetics and outcome”. The “Time on Rotarod at 29 rpm relative to Day -7” value [6] was “improved kinetics and outcome”.
For CSC(=N)N [SMT, S-methyl-isothiourea], the “EAE clinical score kinetics and recovery” value [3] was “irregular recovery; also recorded: lower recovery scores and kinetics than group B” and the “Time on Rotarod at 23 rpm relative to Day -7” value [6] was “improved kinetics and outcome”.
For O=C([O-])/C=C/C(=O)[O-].[Na+].[Na+] [Sodium Fumarate, reference compound], the “EAE clinical score kinetics and endpoint” value [7] was “did not reveal any significant clinical improvement; also recorded: bad outcome at the end of the study; also recorded: no effect”.

Source: patent US10752675B2, “Compounds for treating the remyelination blockade in diseases associated with the expression of HERV-W envelope protein” (GENEURO S.A., priority 2012, dated 2020)
